Data as given in the supplement of paper PMC11061612.

How the values were obtained:
[1] = compound: CCc1c2c(nc3ccc(O)cc13)-c1cc3c(c(=O)n1C2)COC(=O)[C@]3(O)CC [SN-38]; settings: max 0.3 µM
Outline: (§1)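 Cancer cell lines were seeded into 1536-well plates in 7.5 μl medium (DMEM/F12 or RPMI, 10% FBS), held 24 hours at 37°C and 5% CO2, and dosed for 72 hours with final DMSO typically 0.2%. Luminescence from CellTiter-Glo 2.0, scaled between blank-well and DMSO-well means, served as viability. The single-agent IC50 was obtained from dose-response fits with a non-linear mixed effects model, each fit being a two-parameter logistic curve.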

[2] = compound: CCN(CCO)CCCOc1ccc2c(Nc3cc(CC(=O)Nc4cccc(F)c4)[nH]n3)ncnc2c1 [AZD2811]; settings: max 1 µM
Outline: as §1

[3] = compound: COc1cccc(OCCCN)c1-c1cc(Nc2cnc(C#N)cn2)n[nH]1 [Prexasertib]; settings: max 1 µM
Outline: as §1

[4] = compound: CC1=C(C(=CC=C1)Cl)NC(=O)C2=CN=C(S2)NC3=CC(=NC(=N3)C)N4CCN(CC4)CCO [Dasatinib]; settings: max 2 µM
Outline: as §1

[5] = compound: C[C@@H](Oc1cc(-c2cnn(C3CCNCC3)c2)cnc1N)c1c(Cl)ccc(F)c1Cl [Crizotinib]; settings: max 10 µM
Outline: as §1

[6] = compound: CC(=O)c1c(C)c2cnc(Nc3ccc(N4CCNCC4)cn3)nc2n(C2CCCC2)c1=O [Palbociclib]; settings: max 10 µM
Outline: as §1

[7] = compound: COc1nnc2ccc(N3CCC(c4ccc(OCCN5CCN(C)C(=O)[C@H]5C)cc4)CC3)nn12 [AZD5153]; settings: max 1 µM
Outline: as §1

[8] = compound: CN(C)CCCOc1ccc(-c2ccc3ncc4c(c3c2)n(C2CCOCC2)c(=O)n4C)cn1 [AZD0156]; settings: max 3 µM
Outline: as §1

[9] = compound: Cc1nc(-c2cn3c(n2)-c2ccc(-c4cnn(C(C)(C)C(N)=O)c4)cc2OCC3)n(C(C)C)n1 [Taselisib]; settings: max 10 µM
Outline: as §1

[10] = compound: CC1(C)CCC(CN2CCN(c3ccc(C(=O)NS(=O)(=O)c4ccc(NCC5CCOCC5)c([N+](=O)[O-])c4)c(Oc4cnc5[nH]ccc5c4)c3)CC2)=C(c2ccc(Cl)cc2)C1 [Venetoclax]; settings: max 1 µM
Outline: as §1

[11] = compound: Cn1cnc2c(F)c(Nc3ccc(Br)cc3Cl)c(C(=O)NOCCO)cc21 [Selumetinib]; settings: max 10 µM
Outline: as §1

[12] = compound: COc1cc2ncnc(Nc3ccc(F)c(Cl)c3)c2cc1OCCCN1CCOCC1 [Gefitinib]; settings: max 10 µM
Outline: as §1

[13] = compound: C=CCn1c(=O)c2cnc(Nc3ccc(N4CCN(C)CC4)cc3)nc2n1-c1cccc(C(C)(C)O)n1 [AZD1775]; settings: max 3 µM
Outline: as §1

[14] = compound: C[C@@H](c1ccc2nccn2c1)n1nnc2ncc(-c3cnn(C)c3)nc21 [Savolitinib]; settings: max 1 µM
Outline: as §1

[15] = compound: COc1cccc2c1C(=O)c1c(O)c3c(c(O)c1C2=O)C[C@@](O)(C(=O)CO)C[C@@H]3O[C@H]1C[C@H](N)[C@H](O)[C@H](C)O1 [Doxorubicin]; settings: max 1 µM
Outline: as §1

[16] = compound: O=C(c1cc(Cc2n[nH]c(=O)c3ccccc23)ccc1F)N1CCN(C(=O)C2CC2)CC1 [Olaparib]
Outline: as §1

[17] = compound: Cc1c2c(nn1C)CSCc1cc(n(C)n1)CSc1cc(c3ccccc3c1)OCCCc1c(C(=O)O)n(C)c3c-2c(Cl)ccc13 [AZD5991]; settings: max 1 µM
Outline: as §1

[18] = compound: CC(C)n1c(=O)n(C)c2cnc3cc(F)c(-c4ccc(OCCCN5CCCCC5)nc4)cc3c21 [AZD1390]; settings: max 0.3 µM
Outline: as §1

[19] = compound: CC(=O)Nc1cccc(-n2c(=O)n(C3CC3)c(=O)c3c(Nc4ccc(I)cc4F)n(C)c(=O)c(C)c32)c1 [Trametinib]; settings: max 1 µM
Outline: as §1

[20] = compound: CS(=O)(=O)CCNCc1ccc(-c2ccc3ncnc(Nc4ccc(OCc5cccc(F)c5)c(Cl)c4)c3c2)o1 [Lapatinib]; settings: max 10 µM
Outline: as §1

[21] = compound: CC1=CN2[C@@H](C1)C=NC3=CC(=C(C=C3C2=O)OC)OCCCCCOC4=C(C=C5C(=C4)N=C[C@@H]6CC(=CN6C5=O)C)OC [SG3199]; settings: max 0.001 µM
Outline: as §1

[22] = compound: C[C@@H](Nc1cc(F)cc(F)c1)c1cc(C(=O)N(C)C)cc2c(=O)cc(N3CCOCC3)oc12 [AZD8186]; settings: max 3 µM
Outline: as §1

[23] = compound: CN(CC[C@H](CSC1=CC=CC=C1)NC2=C(C=C(C=C2)S(=O)(=O)NC(=O)C3=CC=C(C=C3)N4CCC(CC4)[C@H](C5=CC=CC=C5C6=CC=C(C=C6)Cl)O)S(=O)(=O)C(F)(F)F)CCO [AZD4320]; settings: max 1 µM
Outline: as §1

[24] = compound: C1CN(CCC1(C(=O)N[C@@H](CCO)C2=CC=C(C=C2)Cl)N)C3=NC=NC4=C3C=CN4 [Capivasertib]
Outline: as §1

[25] = compound: C[C@@H]1COCCN1C2=NC(=NC(=C2)C3(CC3)[S@](=N)(=O)C)C4=C5C=CNC5=NC=C4 [AZD6738]; settings: max 10 µM
Outline: as §1

[26] = compound: Cc1cc2ncnn2cc1Nc1ncc2c(n1)n(C1CCOCC1)c(=O)n2C [AZD7648]; settings: max 10 µM
Outline: as §1

[27] = compound: COc1cc(Nc2ncc3c(n2)-c2ccc(Cl)cc2C(c2c(F)cccc2OC)=NC3)ccc1C(=O)O [Alisertib]; settings: max 10 µM
Outline: as §1

| Cell Line | IC50, cell viability 72 h [1] [nM] | IC50, cell viability 72 h [2] [nM] | IC50, cell viability 72 h [3] [nM] | IC50, cell viability 72 h [4] [nM] | IC50, cell viability 72 h [5] [nM] | IC50, cell viability 72 h [6] [nM] | IC50, cell viability 72 h [7] [nM] | IC50, cell viability 72 h [8] [nM] | IC50, cell viability 72 h [9] [nM] | IC50, cell viability 72 h [10] [nM] | IC50, cell viability 72 h [11] [nM] | IC50, cell viability 72 h [12] [nM] | IC50, cell viability 72 h [13] [nM] | IC50, cell viability 72 h [14] [nM] | IC50, cell viability 72 h [15] [nM] | IC50, cell viability 72 h ([16]; max 10 µM) [nM] | IC50, cell viability 72 h [17] [nM] | IC50, cell viability 72 h [18] [nM] | IC50, cell viability 72 h [19] [nM] | IC50, cell viability 72 h [20] [nM] | IC50, cell viability 72 h [21] [nM] | IC50, cell viability 72 h [22] [nM] | IC50, cell viability 72 h [23] [nM] | IC50, cell viability 72 h ([24]; max 10 µM) [nM] | IC50, cell viability 72 h [25] [nM] | IC50, cell viability 72 h [26] [nM] | IC50, cell viability 72 h [27] [nM] | IC50, cell viability 72 h ([16]; max 3 µM) [nM] | IC50, cell viability 72 h ([24]; max 3 µM) [nM] |
| --- | --- | --- | --- | --- | --- | --- | --- | --- | --- | --- | --- | --- | --- | --- | --- | --- | --- | --- | --- | --- | --- | --- | --- | --- | --- | --- | --- | --- | --- |
| 697 (B-Lymphoblastic Leukemia) | 3.34 | 14.6 | 4.5 | 677 | 1100 | 263 | 14.2 | 2070 | 3940 | 14.3 | > 10000 | > 10000 | 149 | > 1000 | 17.3 | 1410 | 48.9 | > 300 | 662 | 6950 | > 1 | > 3000 | 6.75 | 3240 | 336 | 9410 | 33.3 |  |  |
| BB49-HNC (Head and Neck Carcinoma) |  |  |  |  |  |  |  | > 3000 |  |  |  |  | 309 |  |  |  |  |  |  |  |  |  |  |  |  |  |  | > 3000 | 1990 |
| C3A (Hepatocellular Carcinoma) | 143 | > 1000 | 524 | > 2000 | > 10000 | > 10000 | > 1000 | > 3000 | > 10000 | > 1000 | 7960 | > 10000 | 2480 | > 1000 | > 1000 | > 10000 | > 1000 | > 300 | 657 | > 10000 | > 1 | > 3000 | > 1000 | > 10000 | > 10000 | > 10000 | > 10000 |  |  |
| CAL-78 (Chondrosarcoma) | 54.1 | > 1000 | 226 | > 2000 | > 10000 | > 10000 | > 1000 | > 3000 | > 10000 | > 1000 | > 10000 | > 10000 | 898 | > 1000 | > 1000 | > 10000 | 261 | > 300 | > 1000 | > 10000 | > 1 | > 3000 | > 1000 | > 10000 | > 10000 | > 10000 | 1780 |  |  |
| CFPAC-1 (Pancreatic Carcinoma) | 26.1 | > 1000 | 108 | > 2000 | > 10000 | > 10000 | > 1000 | > 3000 | 5770 | > 1000 | > 10000 | > 10000 | 1440 | > 1000 | > 1000 | > 10000 | > 1000 | > 300 | > 1000 | > 10000 | > 1 | > 3000 | > 1000 | > 10000 | > 10000 | > 10000 | > 10000 |  |  |
| COR-L23 (Non-Small Cell Lung Carcinoma) | 131 | > 1000 | 216 | > 2000 | > 10000 | > 10000 | > 1000 | > 3000 | 5740 | > 1000 | > 10000 | > 10000 | 591 | > 1000 | > 1000 | > 10000 | > 1000 | > 300 | > 1000 | > 10000 | > 1 | > 3000 | > 1000 | > 10000 | > 10000 | > 10000 | > 10000 |  |  |
| CTV-1 (T-Lymphoblastic Leukemia) | 3.52 | > 1000 | 7.28 | < 2 | 371 | 1470 | 57.5 | > 3000 | 3170 | > 1000 | > 10000 | 4930 | 280 | > 1000 | 45.6 | > 10000 | > 1000 | > 300 | > 1000 | > 10000 | > 1 | > 3000 | > 1000 | 5880 | 3920 | > 10000 | 199 |  |  |
| DMS-273 (Small Cell Lung Carcinoma) | 18.9 | 114 | 32.4 | > 2000 | 3930 | > 10000 | 117 | > 3000 | 5580 | > 1000 | > 10000 | > 10000 | 1170 | > 1000 | 458 | > 10000 | 201 | > 300 | > 1000 | 7430 | > 1 | 1480 | > 1000 | 916 | 3450 | > 10000 | 1060 |  |  |
| EM-2 (Chronic Myelogenous Leukemia) | 5.12 | 21.9 | 5.51 | 2.28 | 859 | > 10000 | 61.6 | > 3000 | > 10000 | > 1000 | 5550 | > 10000 | 295 | > 1000 | 104 | > 10000 | > 1000 | > 300 | 350 | > 10000 | > 1 | > 3000 | 34.2 | > 10000 | 1630 | > 10000 | 1060 |  |  |
